The structures appear in SMILES notation.

Test [1] can be described thus: DRUGMATRIX: Glutamate, Kainate radioligand binding (ligand: [3H] Kainic acid). The note with it: Not Active = under 50% inhibition at 10 µM. The test is classed as cell membranes, Rattus norvegicus, Wistar, Brain, Membrane.
In test [2] the target is Sodium-dependent dopamine transporter (Homo sapiens, UniProt Q01959). The test is described as follows: DRUGMATRIX: Dopamine Transporter radioligand binding (ligand: [125I] RTI-55). The test is classed as cell membranes, CHO-K1, Membrane. The following applies: Not Active = under 50% inhibition at 10 µM.
Sodium-dependent dopamine transporter, sequence (Q01959 whole entry): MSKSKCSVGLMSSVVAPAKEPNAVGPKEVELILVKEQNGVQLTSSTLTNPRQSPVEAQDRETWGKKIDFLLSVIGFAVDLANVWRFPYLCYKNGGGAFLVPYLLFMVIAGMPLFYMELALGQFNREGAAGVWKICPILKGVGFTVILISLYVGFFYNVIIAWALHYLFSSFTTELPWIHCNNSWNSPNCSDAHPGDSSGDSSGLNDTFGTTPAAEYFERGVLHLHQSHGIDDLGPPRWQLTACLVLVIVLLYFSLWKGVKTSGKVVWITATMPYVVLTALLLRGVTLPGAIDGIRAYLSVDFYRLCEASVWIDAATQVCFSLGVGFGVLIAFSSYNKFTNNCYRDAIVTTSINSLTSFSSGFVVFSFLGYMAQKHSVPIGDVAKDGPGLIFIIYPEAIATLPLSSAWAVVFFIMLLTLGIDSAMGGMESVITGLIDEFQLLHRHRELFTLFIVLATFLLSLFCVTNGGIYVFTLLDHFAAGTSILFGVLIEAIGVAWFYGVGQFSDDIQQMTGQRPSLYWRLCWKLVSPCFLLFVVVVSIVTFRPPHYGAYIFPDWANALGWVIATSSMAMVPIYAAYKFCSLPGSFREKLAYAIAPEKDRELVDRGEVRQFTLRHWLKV
Test [3] addresses Kappa-type opioid receptor (Homo sapiens, UniProt P41145). The test is described as follows: DRUGMATRIX: Opiate kappa (OP2, KOP) radioligand binding (ligand: [3H] Diprenorphine). The test is classed as cell membranes, HEK293, Membrane. The note with it: hek293; Not Active = under 50% inhibition at 10 µM.
In test [4] the target is Receptor tyrosine-protein kinase erbB-2 (Homo sapiens, UniProt P04626). The test is described as follows: biochemical. The test is classed as cell-based, Insect cells.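 Also: inhibition of HER2 kinase enzyme activity, measured with Poly(Glu:Tyr) as the phosphorylation substrate; in other assays of this panel Not Active means under 50% inhibition at 10 µM.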
Receptor tyrosine-protein kinase erbB-2, sequence (P04626 whole entry): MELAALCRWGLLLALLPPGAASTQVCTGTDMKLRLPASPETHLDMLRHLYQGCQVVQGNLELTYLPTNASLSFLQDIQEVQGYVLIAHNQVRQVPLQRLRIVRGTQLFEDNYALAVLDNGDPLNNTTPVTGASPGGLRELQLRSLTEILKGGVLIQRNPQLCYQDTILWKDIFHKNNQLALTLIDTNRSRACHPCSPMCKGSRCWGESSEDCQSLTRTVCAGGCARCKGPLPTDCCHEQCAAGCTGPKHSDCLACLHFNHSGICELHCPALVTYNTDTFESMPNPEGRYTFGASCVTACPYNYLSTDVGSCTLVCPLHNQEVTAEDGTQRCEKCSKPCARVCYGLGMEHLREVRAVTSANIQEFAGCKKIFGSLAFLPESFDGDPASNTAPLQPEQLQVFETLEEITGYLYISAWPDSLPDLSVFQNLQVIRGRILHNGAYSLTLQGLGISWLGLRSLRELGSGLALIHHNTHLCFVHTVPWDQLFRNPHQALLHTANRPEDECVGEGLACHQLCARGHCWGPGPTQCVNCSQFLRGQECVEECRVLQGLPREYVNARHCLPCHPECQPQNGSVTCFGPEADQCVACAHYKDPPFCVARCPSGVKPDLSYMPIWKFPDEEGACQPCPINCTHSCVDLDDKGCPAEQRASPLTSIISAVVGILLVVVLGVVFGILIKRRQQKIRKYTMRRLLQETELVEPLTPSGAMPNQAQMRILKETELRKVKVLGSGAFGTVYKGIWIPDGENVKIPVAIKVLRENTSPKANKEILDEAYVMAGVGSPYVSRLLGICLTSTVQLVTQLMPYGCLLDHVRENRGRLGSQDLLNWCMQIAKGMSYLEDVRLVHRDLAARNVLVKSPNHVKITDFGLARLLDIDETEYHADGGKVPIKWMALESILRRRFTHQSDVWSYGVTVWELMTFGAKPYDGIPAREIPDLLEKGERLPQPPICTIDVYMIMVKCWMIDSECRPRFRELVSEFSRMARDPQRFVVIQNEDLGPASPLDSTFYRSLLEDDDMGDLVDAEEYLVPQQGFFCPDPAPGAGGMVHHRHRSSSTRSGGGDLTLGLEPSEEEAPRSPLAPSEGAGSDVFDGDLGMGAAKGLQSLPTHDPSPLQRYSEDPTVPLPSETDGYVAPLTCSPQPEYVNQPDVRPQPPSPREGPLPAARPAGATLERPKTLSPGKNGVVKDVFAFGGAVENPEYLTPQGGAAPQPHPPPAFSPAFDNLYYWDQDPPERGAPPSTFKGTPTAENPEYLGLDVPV
The nature of test [5]: DRUGMATRIX: Leukotriene, BLT (LTB4) radioligand binding (ligand: [3H]LTB4). The following applies: u-937; Not Active = under 50% inhibition at 10 µM. The test is classed as cell membranes, Membrane.
The target in another test is T1, Cathepsin G (Homo sapiens, UniProt P08311).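 Also: inhibition of Cathepsin G enzyme activity, tested on an AMC-conjugated peptide substrate; in other assays of this panel Not Active means under 50% inhibition at 10 µM.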
T1 sequence (P08311 whole entry): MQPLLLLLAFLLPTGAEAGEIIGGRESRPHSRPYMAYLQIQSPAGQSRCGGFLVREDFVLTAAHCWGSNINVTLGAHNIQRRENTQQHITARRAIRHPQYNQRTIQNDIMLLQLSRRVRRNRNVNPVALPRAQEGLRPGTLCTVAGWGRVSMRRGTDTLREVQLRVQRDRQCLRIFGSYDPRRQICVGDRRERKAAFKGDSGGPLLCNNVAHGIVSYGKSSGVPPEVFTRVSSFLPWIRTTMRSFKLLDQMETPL
The test is classed as tissue-based. The following applies: neutrophil.

Test [6] addresses T2, Cholecystokinin receptor type A (Homo sapiens, UniProt P32238).
T2 sequence (P32238 whole entry): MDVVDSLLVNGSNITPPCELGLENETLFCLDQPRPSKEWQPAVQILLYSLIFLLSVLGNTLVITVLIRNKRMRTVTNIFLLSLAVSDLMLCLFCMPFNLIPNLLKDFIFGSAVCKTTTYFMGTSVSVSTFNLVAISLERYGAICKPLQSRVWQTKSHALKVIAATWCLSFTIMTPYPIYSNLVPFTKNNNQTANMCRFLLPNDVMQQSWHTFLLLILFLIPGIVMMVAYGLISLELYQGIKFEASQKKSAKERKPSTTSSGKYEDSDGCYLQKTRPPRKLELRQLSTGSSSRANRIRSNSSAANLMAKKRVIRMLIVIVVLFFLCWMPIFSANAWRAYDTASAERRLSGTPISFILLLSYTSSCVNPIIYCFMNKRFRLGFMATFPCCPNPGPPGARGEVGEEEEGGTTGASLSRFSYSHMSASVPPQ
The test is classed as cell membranes, Membrane. The note with it: 1321-n1.

Another test has as its target T3, Glucocorticoid receptor (Homo sapiens, UniProt P04150). Also: in other assays of this panel Not Active means under 50% inhibition at 10 µM.
T3 sequence (P04150 whole entry): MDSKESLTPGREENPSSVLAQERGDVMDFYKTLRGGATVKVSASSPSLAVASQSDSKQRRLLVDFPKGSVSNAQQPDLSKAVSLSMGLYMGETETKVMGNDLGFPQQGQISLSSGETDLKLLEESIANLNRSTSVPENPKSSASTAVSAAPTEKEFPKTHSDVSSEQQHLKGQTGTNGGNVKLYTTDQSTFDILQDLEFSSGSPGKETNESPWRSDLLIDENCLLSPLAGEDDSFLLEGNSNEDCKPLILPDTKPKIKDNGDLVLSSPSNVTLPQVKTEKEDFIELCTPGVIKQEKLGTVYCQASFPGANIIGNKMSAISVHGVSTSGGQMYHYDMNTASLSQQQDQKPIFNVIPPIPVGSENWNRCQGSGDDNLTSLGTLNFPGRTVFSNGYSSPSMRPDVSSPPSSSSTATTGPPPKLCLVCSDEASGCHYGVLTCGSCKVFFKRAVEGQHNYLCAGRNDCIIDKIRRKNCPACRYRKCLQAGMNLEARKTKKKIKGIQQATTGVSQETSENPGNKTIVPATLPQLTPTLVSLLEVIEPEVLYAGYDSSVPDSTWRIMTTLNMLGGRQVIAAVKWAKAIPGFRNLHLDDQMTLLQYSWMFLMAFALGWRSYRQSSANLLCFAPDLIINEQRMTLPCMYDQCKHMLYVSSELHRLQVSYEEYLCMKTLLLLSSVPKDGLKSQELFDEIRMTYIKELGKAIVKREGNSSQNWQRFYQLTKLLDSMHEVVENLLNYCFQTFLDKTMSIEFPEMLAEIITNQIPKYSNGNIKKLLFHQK
The note with it: hela s3.

Kappa-type opioid receptor, sequence (P41145 whole entry): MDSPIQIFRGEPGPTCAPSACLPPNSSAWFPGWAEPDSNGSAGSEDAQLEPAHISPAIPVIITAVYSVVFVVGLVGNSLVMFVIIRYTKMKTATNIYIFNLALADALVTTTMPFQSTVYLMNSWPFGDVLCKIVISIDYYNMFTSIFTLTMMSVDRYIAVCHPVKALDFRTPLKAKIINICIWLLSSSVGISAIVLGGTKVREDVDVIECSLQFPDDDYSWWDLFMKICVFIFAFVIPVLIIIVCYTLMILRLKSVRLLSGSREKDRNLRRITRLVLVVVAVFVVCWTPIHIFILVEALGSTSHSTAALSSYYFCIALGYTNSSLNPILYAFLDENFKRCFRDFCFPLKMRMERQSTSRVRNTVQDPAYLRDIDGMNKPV

Take `N=C(N)NC(=O)Cc1c(Cl)cccc1Cl` [GUANFACINE]: the 50% inhibitory concentration (IC50) result (in test [1]; in test [2] (cho-k1); in test [3]; in test [4] (insect cells); in test [5]; against Cathepsin G) was “Not Active” each time. In addition, the IC50 result (in test [6]; at Glucocorticoid receptor) was “Not Active” throughout. The Ki result in test [1] and in test [5] was “Not Active” throughout.

In the case of `Oc1c(Cl)cc(Cl)c(Cl)c1Cc1c(O)c(Cl)cc(Cl)c1Cl` [HEXACHLOROPHENE], the IC50 (as a rule, the concentration that inhibits the measured activity by half) in test [1] was “Not Active”; in test [2] (cho-k1), “Not Active”; in test [3] it was “Not Active”; in test [4] (read-out: IC50), 3.32 µM; in test [5], “Not Active”; on Cathepsin G, “Not Active”. The IC50 result (in test [6]; against Glucocorticoid receptor) was “Not Active” each time. In addition, the Ki result in test [1] and in test [5] was “Not Active” in each case.

Consider `NNc1nncc2ccccc12` [HYDRALAZINE], for which the IC50 result (in test [1]; in test [2] (cho-k1); in test [3]; in test [4] (insect cells); in test [5]; against Cathepsin G) was “Not Active” in each case. In addition, the IC50 entry (in test [6]; at Glucocorticoid receptor) was “Not Active” in each case. Besides, the Ki entry in test [1] and in test [5] was “Not Active” throughout.

On to `COC1=C(OC)C(=O)C(CCCCCCCCCCO)=C(C)C1=O` [IDEBENONE], for which the IC50 entry (in test [1]; in test [2] (cho-k1); in test [3]; in test [4] (insect cells); in test [5]; on Cathepsin G) was “Not Active” in each case. In addition, the IC50 result (in test [6]; against Glucocorticoid receptor) was “Not Active” each time. The Ki result in test [1] and in test [5] was “Not Active” in each case.

`CC(C)NNC(=O)c1ccncc1` [IPRONIAZID]: the IC50 entry (in test [1]; in test [2] (cho-k1); in test [3]; in test [4] (insect cells); in test [5]; at Cathepsin G) was “Not Active” throughout. In addition, the IC50 result (in test [6]; against Glucocorticoid receptor) was “Not Active” throughout. Further, the Ki entry in test [1] and in test [5] was “Not Active” in each case.

On to `Cc1c(OCC(F)(F)F)ccnc1C[S+]([O-])c1nc2ccccc2[nH]1` (stereo unspecified) [LANSOPRAZOLE], for which the IC50 entry (in test [1]; in test [2] (cho-k1); in test [3]; in test [4] (insect cells); in test [5]; on Cathepsin G) was “Not Active” throughout. For the same molecule, the IC50 result (in test [6]; at Glucocorticoid receptor) was “Not Active” in each case. In addition, the Ki entry in test [1] and in test [5] was “Not Active” each time.

`O=c1cc(N2CCOCC2)oc2c(-c3ccccc3)cccc12` [LY-294002]: the IC50 result (in test [1]; in test [2] (cho-k1); in test [3]; in test [4] (insect cells); in test [5]; at Cathepsin G) was “Not Active” throughout. The IC50 entry (in test [6]; against Glucocorticoid receptor) was “Not Active” in each case. Besides, the Ki entry in test [1] and in test [5] was “Not Active” in each case.

`COc1ccc2[nH]cc(CCNC(C)=O)c2c1` [MELATONIN]: the IC50 entry (in test [1]; in test [2] (cho-k1); in test [3]; in test [4] (insect cells); in test [5]; at Cathepsin G) was “Not Active” throughout. Further, the concentration for half-maximal inhibition (IC50) entry (in test [6]; at Glucocorticoid receptor) was “Not Active” in each case. Moreover, the Ki result in test [1] and in test [5] was “Not Active” in each case.

Consider `CCN(CC)CCOCCC1=CCC2CC1C2(C)C` (stereo unspecified) [MYRTECAINE], for which the IC50 result (in test [1]; in test [2] (cho-k1); in test [3]; in test [4] (insect cells); in test [5]; against Cathepsin G) was “Not Active” in each case. The IC50 entry (in test [6]; on Glucocorticoid receptor) was “Not Active” in each case. In addition, the Ki entry in test [1] and in test [5] was “Not Active” in each case.

For the molecule `O=C(O)c1cccnc1Nc1cccc(C(F)(F)F)c1` [NIFLUMIC ACID], the IC50 entry (in test [1]; in test [2] (cho-k1); in test [3]; in test [4] (insect cells); in test [5]; on Cathepsin G) was “Not Active” throughout. Further, the IC50 entry (in test [6]; against Glucocorticoid receptor) was “Not Active” throughout. For the same molecule, the Ki result in test [1] and in test [5] was “Not Active” throughout.

With `O=C(N/N=C/c1ccc([N+](=O)[O-])o1)c1cc([N+](=O)[O-])cc([N+](=O)[O-])c1O` [NIFURSOL], the half-maximal inhibitory concentration (IC50) entry (in test [1]; in test [2] (cho-k1); in test [3]; in test [4] (insect cells); in test [5]; at Cathepsin G) was “Not Active” throughout. The IC50 entry (in test [6]; on Glucocorticoid receptor) was “Not Active” throughout. Moreover, the Ki result in test [1] and in test [5] was “Not Active” in each case.

In the case of `COC(=O)Nc1nc2ccc(C(=O)c3cccs3)cc2[nH]1` [NOCODAZOLE], the IC50 result in test [1] was “Not Active”; in test [2] (read-out: IC50), 6.23 µM; in test [3], “Not Active”; in test [4] (insect cells), “Not Active”; in test [5], “Not Active”; on Cathepsin G, “Not Active”. In addition, the IC50 entry (in test [6]; on Glucocorticoid receptor) was “Not Active” each time. For the same molecule, the values for the Ki entry in test [1], in test [2] (read-out: Ki) and in test [5] were “Not Active”, 4.95 µM and “Not Active”, respectively.

Turning to `COC(=O)Nc1nc2ccc([S+]([O-])c3ccccc3)cc2[nH]1` (stereo unspecified) [OXFENDAZOLE], the IC50 entry (in test [1]; in test [2] (cho-k1); in test [3]; in test [4] (insect cells); in test [5]; against Cathepsin G) was “Not Active” throughout. For the same molecule, the IC50 entry (in test [6]; against Glucocorticoid receptor) was “Not Active” in each case. The Ki entry in test [1] and in test [5] was “Not Active” throughout.

`CC(C)NCC(O)COc1cccc2[nH]ccc12` (stereo unspecified) [PINDOLOL]: the IC50 entry (in test [1]; in test [2] (cho-k1); in test [3]; in test [4] (insect cells); in test [5]; on Cathepsin G) was “Not Active” throughout. Also, the IC50 result (in test [6]; on Glucocorticoid receptor) was “Not Active” throughout. Also, the inhibitory constant (Ki) result in test [1] and in test [5] was “Not Active” throughout.

With `CCn1cc(C(=O)O)c(=O)c2cnc(N3CCCC3)nc21` [PIROMIDIC ACID], the IC50 entry (in test [1]; in test [2] (cho-k1); in test [3]; in test [4] (insect cells); in test [5]; on Cathepsin G) was “Not Active” throughout. Further, the IC50 result (in test [6]; on Glucocorticoid receptor) was “Not Active” in each case. In addition, the Ki result in test [1] and in test [5] was “Not Active” each time.

For the origin of these results see ChEMBL document CHEMBL1909046, “DrugMatrix in vitro pharmacology data”.
